# Measured values taken from patent US20230218542A1, “MEDICAMENT FOR TREATING HYPERTENSION” (priority 2022, published 2023).
# System: L-NAME-induced hypertensive rats
# Assay: Therapeutic effect on L-NAME-induced hypertensive rats (Effect Verification 1), tail artery pressure
# Assay type: in vivo, SD rats
# Conditions: for antihypertensive effect (overall finding): SBP and DBP, three weeks of administration; for comparison of SBP with that in the group M: after the end of the administration (third week)
# Description: The tail artery pressure, including systolic blood pressure (SBP) and diastolic blood pressure (DBP), was measured in rats in the resting state at the same time using an ALC-NIBP noninvasive blood pressure measuring instrument. One hundred and fifty-two 6-week-old male SD rats were taken and subjected to adaptive feeding for one week at room temperature of 18-26° C. with the relative humidity of 40%-70% and illumination by artificial lighting from 9:00 to 21:00 every day. After one week, blood pressure in all of them was measured, the results were charted using Excel 2010, and the experimental data were analyzed using SPSS 20.0, where P < 0.05 indicated statistical significance and the measurement data were expressed as x̅ ± s. […] According to the commonly used grading criteria for hypertension, SBP 140 mmHg is the critical value of hypertension, and every 20 mmHg is one grade. Every 10 mmHg of DBP is one grade. Therefore, SBP > 140 mmHg is set as mild hypertension and SBP > 160 mmHg is set as moderate hypertension; optionally, DBP increased by more than 10 mmHg is mild hypertension and DBP increased by more than 20 mmHg is moderate hypertension.
# Rats with the blood pressure in the normal range measured in the step 1 above and the weight of 200 ± 20 g were randomly taken and grouped into 7 groups: a control group (K) containing 8 rats, a model control group (M), a ligustrazine administration group (TMP, 60 mg/kg), a cannabidiol administration group (CBD, 60 mg/kg), and combined administration groups of TMP and CBD (divided into three groups in different ratios of 2:1 (XA), 1:1 (XB) and 1:2 (XC), TMP = 60 mg/kg, and CBD was 30 mg/kg, 60 mg/kg and 120 mg/kg, respectively). 10 rats were contained in each remaining group. Except for group K, 12 mg/kg L-NAME was administered intragastrically to the rest at 9:00 every day to manufacture a hypertension model, and distilled water was administered in an equal amount to K group. By the fourth week, blood pressure was measured in each group, and after individuals with SBP < 140 mmHg were excluded from the model, each group was administered for three weeks, and drug vehicles were administered in an equal amount to groups K and M. Blood pressure was measured once a week during the administration period. (The animal model was fasted for two hours before the administration, and the medicament was bathed to room temperature. TMP solution at 1 mL/100 g was firstly administered intragastrically to the combined administration groups of TMP and CBD, and after 1 h interval, CBD solution at the corresponding half volume was then administered intragastrically.)
# One-way ANOVA analysis (Duncan) was used for pairwise comparisons among groups, and paired-sample t-test was used for before-and-after comparisons within groups. The change trend of SBP of rats in each group is shown in FIG. 2 and the change trend of DBP of rats in each group is shown in FIG. 3, and the abscissa “0” represents the fourth week of molding, i.e., the beginning of the administration period.
# [1] = one week of intragastric administration
# [2] = three weeks of intragastric administration
# [3] = two weeks of intragastric administration
Compound,antihypertensive effect (overall finding),comparison of SBP with that in the group M,Effect = (SBP in model group - SBP in administration group)/(SBP in model group - SBP in control group) [1],Effect = (SBP in model group - SBP in administration group)/(SBP in model group - SBP in control group) [2],Effect = (SBP in model group - SBP in administration group)/(SBP in model group - SBP in control group) [3],decrease of SBP (after the end of the administration)
ligustrazine phosphate [TMP],no significant antihypertensive effect,no significant difference,0.0716,0.1722,0.0780,–
"C=C(C)[C@@H]1CCC(C)=C[C@H]1c1c(O)cc(CCCCC)cc1O [CBD, cannabidiol]",significant antihypertensive effect,significant difference,0.3222,0.3418,0.3628,more than 10 mmHg
